Assay [1] concerns the target von Hippel-Lindau disease tumor suppressor/Bromodomain-containing protein 4 (Homo sapiens) (UniProt O60885+P40337). Kind of assay: Protac activity at VHL/BRD4 in human MCF7 cells assessed as induction of BRD4 degradation at 10 uM measured after 24 hrs by Western blotting analysis. In kind it is cell-based. In general terms: Immunoblotting shows a protein as a band on a membrane.

The target of assay [2] is E3 ubiquitin-protein ligase XIAP/Bromodomain-containing protein 4 (Homo sapiens) (UniProt P98170+O60885). Kind of assay: Protac activity at IAP/BRD4 in human SK-MEL-28 cells assessed as induction of BRD4 degradation at 0.1 to 10 uM measured after 24 hrs by Western blotting analysis. To be noted: dose 0.1-10 µM. The assay is classed as cell-based.

Activity calls are given as the source filed them. No cut-off for these calls is given here.

von Hippel-Lindau disease tumor suppressor/Bromodomain-containing protein 4 (Homo sapiens), sequence (P40337 whole entry, looked up, other chains not shown): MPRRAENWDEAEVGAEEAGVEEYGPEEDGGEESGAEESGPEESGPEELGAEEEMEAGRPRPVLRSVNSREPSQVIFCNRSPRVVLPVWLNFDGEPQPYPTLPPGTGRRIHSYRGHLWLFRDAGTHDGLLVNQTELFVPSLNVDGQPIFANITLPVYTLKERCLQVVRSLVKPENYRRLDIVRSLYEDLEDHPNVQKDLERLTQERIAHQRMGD
E3 ubiquitin-protein ligase XIAP/Bromodomain-containing protein 4 (Homo sapiens), sequence (P98170 whole entry, looked up, other chains not shown): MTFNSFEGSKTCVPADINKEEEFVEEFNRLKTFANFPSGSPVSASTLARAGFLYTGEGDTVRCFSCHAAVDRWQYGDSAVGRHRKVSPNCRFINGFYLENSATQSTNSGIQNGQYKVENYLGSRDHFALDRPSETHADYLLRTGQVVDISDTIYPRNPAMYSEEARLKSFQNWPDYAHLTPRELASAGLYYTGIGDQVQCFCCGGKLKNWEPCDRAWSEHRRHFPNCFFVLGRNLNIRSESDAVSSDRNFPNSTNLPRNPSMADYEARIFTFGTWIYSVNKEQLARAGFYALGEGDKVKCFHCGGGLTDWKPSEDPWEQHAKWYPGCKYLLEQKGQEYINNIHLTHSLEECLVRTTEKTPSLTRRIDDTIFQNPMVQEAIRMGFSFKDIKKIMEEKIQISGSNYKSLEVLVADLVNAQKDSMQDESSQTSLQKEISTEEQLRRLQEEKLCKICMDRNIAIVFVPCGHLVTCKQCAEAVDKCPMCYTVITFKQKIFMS

On to `CC1=C(C)C2C(c3ccc(Cl)cc3)=N[C@@H](CC(=O)NCCCNC(=O)CCCC(=O)N[C@H](C(=O)N3C[C@H](O)C[C@H]3C(=O)NCc3ccc(-c4scnc4C)cc3)C(C)(C)C)c3nnc(C)n3C2S1` (some centres undefined), for which the outcome in assay [1] was Active.

For `CC1=C(C)C2C(c3ccc(Cl)cc3)=N[C@@H](CC(=O)NCCOCCOCCNC(=O)CCCC(=O)N[C@H](C(=O)N3C[C@H](O)C[C@H]3C(=O)NCc3ccc(-c4scnc4C)cc3)C(C)(C)C)c3nnc(C)n3C2S1` (some centres undefined), the outcome in assay [1] was inactive.

Regarding `CN[C@@H](C)C(=O)N[C@H](C(=O)N1CCC[C@H]1c1nc(C(=O)c2cccc(OCC(=O)NCCOCCOCCOCCNC(=O)C[C@@H]3N=C(c4ccc(Cl)cc4)c4c(sc(C)c4C)-n4c(C)nnc43)c2)cs1)C1CCCCC1`, the result in assay [2] was Active.

As to `CN[C@@H](C)C(=O)N[C@H](C(=O)N1CCC[C@H]1c1nc(C(=O)c2cccc(OCC(=O)NCCCNC(=O)C[C@@H]3N=C(c4ccc(Cl)cc4)c4c(sc(C)c4C)-n4c(C)nnc43)c2)cs1)C1CCCCC1`, the outcome in assay [2] was Active.
